The results in this text go back to US4236010A, “Phenyl-quinolizidines” (Hoffmann-La Roche Inc., priority 1978, dated 1980).

Structures can show the parent of a compound that is named as a salt.

A short description of test [1]: "Pole Climbing" test (rat). In kind it is in vivo. As to conditions: ip, 6 h; for ED50: Rattus norvegicus, read-out: Pole-Climbing BCR (Block of Conditioned Reflex) ED50 i.p.; for ED10: rat, i.p., inhibition of the unconditioned reaction, ED 10, read-out: Pole-Climbing BUR (Block of Unconditioned Reflex) ED10 i.p. An excerpt:
"Pole Climbing" test (rat)
In this test, there was used, for each dosage, a group of 10 rats which had been trained to escape an electric shock, unconditioned stimulus, produced via the lattice floor immediately after an acoustic signal, conditioned stimulus, by jumping up a vertical isolated pole in the experimental cage.

The target of test [2] is T1, calf striatum (specific binding of [^3 H] spiroperidol on the receptor) (Bos taurus, UniProt P20288).
T1 construct: calf striatum was used as the receptor; from tissue; host or cells: calf striatum
Kind of test: Spiroperidol-binding test (in vitro). As to conditions: 50% detachment of specific [^3 H] spiroperidol binding. The procedure:
Spiroperidol-binding test (in vitro)
In this in vitro test calf striatum was used as the receptor [Creese et al., Life Sci. 17, 993 (1975)] and incubated with [^3 H] spiroperidol in analogy to the method described by Fields et al., Brain Research 136, 578 (1977).

The nature of the next test: Writhing test (mouse). The format is in vivo. As to conditions: po, 1 h, male mice, p.o., 60 minutes after administration. The procedure: Eight male mice (20-22 g.) per dosage, were used for this test. Sixty minutes after oral administration of the test substance, the mice were injected intraperitoneally with 10 ml/kg of the test solution. Following a latent period of 5 minutes, the number of animals in which no more than one characteristic writhing symptom (convulsive stretching movement of the body) occurred over five minutes was registered.
In general terms: Writhing tests count abdominal constrictions after an irritant is injected.

The nature of another test: Hot-plate test (mouse). The format is in vivo. As to conditions: po, 1 h, mice, p.o., 60 minutes after administration, plate 60°±0.5° C. The method, then:
Eight mice (20-22 g) were used per dosage. Sixty minutes after oral administration of the test substance, the mice were placed on a heated metal plate of 60°±0.5° C. Untreated mice begin to lick their paws within a maximum of 10 seconds.
On the technique in general: Thermal pain tests record how soon the animal reacts.

T1 sequence (P20288 whole entry): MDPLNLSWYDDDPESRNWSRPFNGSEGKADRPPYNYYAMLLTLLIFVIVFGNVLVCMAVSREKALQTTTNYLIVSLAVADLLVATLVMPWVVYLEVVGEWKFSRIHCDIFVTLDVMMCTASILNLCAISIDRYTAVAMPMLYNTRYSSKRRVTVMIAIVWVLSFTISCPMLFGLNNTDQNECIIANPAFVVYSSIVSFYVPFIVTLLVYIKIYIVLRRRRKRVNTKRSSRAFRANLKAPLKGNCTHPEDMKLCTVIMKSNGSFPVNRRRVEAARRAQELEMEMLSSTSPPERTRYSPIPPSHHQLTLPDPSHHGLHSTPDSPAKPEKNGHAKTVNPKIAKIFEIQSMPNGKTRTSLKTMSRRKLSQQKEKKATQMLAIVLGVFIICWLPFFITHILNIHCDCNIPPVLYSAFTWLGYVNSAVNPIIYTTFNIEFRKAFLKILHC

The term ED50 denotes the midpoint of the dose-response relation. By IC50 is commonly meant the concentration needed to halve the response being measured. Higher therefore signals lower potency. Take `Cc1cc2[nH]c(=O)n([C@@H]3CCN4C[C@@H](c5ccccc5Cl)CC[C@@H]4C3)c2cc1C` (relative stereo) [rac-1-[(9aβH)-7β-(o-Chlorophenyl)octahydro-2H-quinolizin-2α-yl]-5,6-dimethyl-2-benzimidazolinone HCl]: in test [1], the ED50 is 1.75 mg/kg and the ED10 was found to be 4.55 mg/kg. Also, the concentration for half-maximal inhibition (IC50) in test [2] was 5 nM.
Consider `O=c1[nH]c2cc(C(F)(F)F)ccc2n1[C@@H]1CCN2C[C@@H](c3ccccc3Cl)CC[C@@H]2C1` (relative stereo) [rac-1-[(9aβH)-7β-(o-Chlorophenyl)octahydro-2H-quinolizin-2α-yl]-5-trifluoromethyl-2-benzimidazolinone HCl], for which, in test [1], the median effective dose (ED50) was 0.21 mg/kg and the ED10 is 0.41 mg/kg. The compound also yielded a 50% inhibitory concentration (IC50) in test [2] of 10 nM.
`O=c1[nH]c2cc(Cl)ccc2n1[C@@H]1CCN2C[C@@H](c3ccccc3F)CC[C@@H]2C1` (relative stereo) [rac-1-[(9aβH)-7β-(o-Fluorophenyl)octahyro-2H-quinolizin-2α-yl]-5-chloro-2-benzimidazolinone HCl]: in test [1], the ED50 was 0.064 mg/kg and the ED10 was determined as 0.175 mg/kg.
Turning to `CC(C)(C)[C@]1(O)CCN2C[C@@H](c3ccc(Cl)cc3Cl)CC[C@@H]2C1` (relative stereo) [rac-(9aβ H)-2α-tert.-Butyl-7β-(2,4-dichlorophenyl) octahydro-2H-quinolizin-2-ol HCl], in test [1], the ED50 amounted to 6.4 mg/kg and the ED10 came out at 5.4 mg/kg. Moreover, the IC50 in test [2] came to 79 nM.
Take `CCC(=O)O[C@@]1(c2ccccc2)CCN2C[C@@H](c3cccc(OC)c3)CC[C@@H]2C1` (relative stereo) [rac-(9aβH)-2α-Phenyl-7β-(m-methoxyphenyl)-octahydro-2H-quinolizin-2-yl propionate HCl]: the ED50 in the test “Writhing test (mouse)” turned out to be 2.8 mg/kg; in the test “Hot-plate test (mouse)” it was 12 mg/kg.
`CCCC[C@]1(OC(C)=O)CCN2C[C@@H](c3ccccc3)CC[C@@H]2C1` (relative stereo) [rac-(9aβH)-2α-n-Butyl-7β-phenyl-octahydro-2H-quinozilin-2-yl acetate HCl]: the ED50 was found to be 0.75 mg/kg in the test “Writhing test (mouse)” and 25 mg/kg in the test “Hot-plate test (mouse)”.
As to `CC(C)(C)[C@]1(OC(=O)C(F)(F)F)CCN2C[C@@H](c3ccccc3)CC[C@@H]2C1` (relative stereo) [rac-(9aβH)-2α-tert.Butyl-7β-phenyl-octahydro-2H-quinolizin-2-yl trifluoroacetate HCl], the ED50 in the test “Writhing test (mouse)” came out at 8.7 mg/kg; in the test “Hot-plate test (mouse)”, 86 mg/kg.
The corresponding values for `CC(=O)O[C@]1(c2ccccc2)CCN2C[C@@H](c3ccccc3Cl)CC[C@@H]2C1` (relative stereo) [rac-(9aβH)-2β-Phenyl-7β-(o-chlorophenyl)-octahydro-2H-quinolizin-2-yl acetate HCl] are 116 mg/kg and 284 mg/kg.
With `CCCCC1(OC(C)=O)CCN2CC(c3ccccc3)CCC2C1.Cl` (single isomer, unassigned; (+)) [(+)-2-Butyloctahydro-7-phenyl-2H-quinolizin-2-yl acetate HCl], the results for the ED50 in the test “Writhing test (mouse)” and in “Hot-plate test (mouse)” were 0.19 mg/kg and 2.6 mg/kg, respectively.
With `CC(C)(C)[C@]1(O)CCN2C[C@@H](c3ccc(Cl)cc3Cl)CC[C@@H]2C1` [(-)-(2S,7R,9aR)-2-tert.-Butyl-7-(2,4-dichlorophenyl) octahydro-2H-quinolizin-2-ol HCl], in test [1], the 50% effective dose (ED50) stood at 4.7 mg/kg and the ED10 came to 3.8 mg/kg. This compound had an IC50 in test [2] of 41 nM.
